Experimental data: patent publication US12370183B2, “Compositions and methods for treating malaria” (Rutgers, The State University of New Jersey, priority 2020, dated 2025)

Key:
[1] = tested on: Proguanil resistant attB Pf Dd2; assay: P. falciparum (Dd2 strain) asexual blood stage assay, proguanil resistant attB; type: cell-based, Plasmodium falciparum; settings: for IC50: Plasmodium falciparum, DD2, 72 h, read-out: Proguanil resistant attB Pf Dd2 IC50 (uM)
Description: (§1) Assays using human blood cells infected with Plasmodium falciparum: (Pf) parasites, both wild-type strains as well as mutant drug-resistant strains, were performed as described below. Wild-type strains used were aatB Pf (Dd2 strain) and Pf (Dd2 strain). Mutant strains used were proguanil resistant attb Pf (Dd2 strain), dihydroorotate dehydrogenase (DHODH) deficient aatB Pf (Dd2 strain), and DHODH deficient and proguanil resistant Pf (Dd2 strain).
(§2) 2008 Jul. 1; 105(26):9059-64.
(§3) Parasitemia was estimated by blood smear Giemsa stain and visual inspection under the microscopic.
The screening plate was prepared by centrifuging for parasite culture for 5 min at 800×g at RT (low brake) and removing supernatant. A parasite suspension was prepared with 0.3% parasitemia and 4% hematocrit in screening medium (SM). The suspension was gassed with a gas mixture of 1% oxygen, 3% carbon dioxide, 96% nitrogen and stored at 37° C. for until ready to use. 50 nl of 1 mM compound in DMSO was prespotted into 1536 well plates (final drug conc. of 12.5 μM, final DMSO conc. of 0.625%) with the acoustic dispenser ATS. Controls were Artemisinin, Chloroquine, and DMSO. 8 μl of SM was dispensed into 1,536-well, black, clear-bottom plates (Greiner) using the MultiFlo™ Microplate dispenser (BioTek) (final parasitemia of 0.3% and 2.5% hematocrit in SM). The plates were incubated at 37° C. for 72 h with water-soaked tissue in a closed ziploc bag gassed with 1% oxygen, 3% carbon dioxide, 96% nitrogen.
(§4) 2 μl of detection reagent mixture (10×SYBR Green I (Invitrogen) in Lysis buffer (20 mM Tris/HCl, 5 mM EDTA, 0.16% Saponin wt/vol, 1.6% Triton X vol/vol) was added. Assay plates were read from the bottom by using the 2104 EnVision® Multilabel Reader (PerkinElmer) (485 nm excitation, 530 nm emission). The results are presented in Table 5 below.

[2] = tested on: HepG2-A16-CD81EGFP cells; assay: HepG2 cytotoxicity bioluminescence assay (CellTiter-Glo); type: cell-based, human; settings: for concentration below which no toxicity was seen: HepG2-A16-CD81EGFP, 48 h, CellTiter-Glo
Description: Compounds 66 and 177 were tested for viability of liver schizonts of the murine Plasmodium berghei species transformed with Luciferase by using the following assay adapted and modified from S. Swann et al. (2016) High-Throughput Luciferase-Based Assay for the Discovery of Therapeutics That Prevent Malaria. ACS Infectious Diseases 2: 4. 281-293 (2016), but with the removal of the infection methods. The CellTiter-Glo® ° (Promega Corp., Madison WI) is a method to determine the number of viable cells in culture based on quantitation of the ATP present, which signals the presence of metabolically active cells.
HepG2-A16-CD81EGFP cells were stably transformed to express a GFP-CD81 fusion protein (S. Yalaoui et al., Hepatocyte permissiveness to Plasmodium infection is conveyed by a short and structurally conserved region of the CD81 large extracellular domain. PLoS Pathog. 4, e1000010 (2008); O. Silvie et al, Hepatocyte CD81 is required for Plasmodium falciparum and Plasmodium yoelii sporozoite infectivity. Nat. Med. 9, 93 (2003)). The transformed HepG2-A16-CD81EGFP cells were cultured at 37° C. in 5% CO2 in DMEM (Invitrogen, Carlsbad, USA) supplemented with 10% FCS, 0.29 mg/ml glutamine, 100 units penicillin and 100 μg/ml streptomycin.
[…] HepG2-A16-CD81EGFP cells in 5 μl of medium (2×10^5 cells/ml, 5% FBS, 5× Pen/Strep/Glu) were seeded in 1536-well plates (Greiner BioOne white solid bottom custom GNF mold) 20-26 hours prior to the actual infection. 24 hours prior to infection, 50 nl of compound in DMSO (0.5% final DMSO concentration per well) was transferred with acoustic transfer machine (ATS) into the assay plates (10 μM-50 μM final concentration). Puromycin (25 μM) and 0.5% DMSO were used as positive and negative controls, respectively.
5 μl of the HepG2 screening media were dispensed into each well of the 1536 plate format using the BioTek MultiFlo FX Multi-Mode Cell Dispenser and a 5 μl BioTek Liquid Handling MicroFlo cassette. This step was to maintain equal concentrations of compounds with the Pb-Luc infected plates that were performed in parallel with this assay (P. berghei-Luciferase Liver Stage Bioluminescence Assay). After incubation at 37° C. for 48 hours, the cell viability was quantified by bioluminescence measurement. […] Puromycin and naive wells were used as controls on each plate. The compounds were screened in a 12 point serial dilution to determine their IC50 values.
Media was removed by spinning the inverted plates at 150 RCF for 1 minute. CellTiter-Glo® reagent (Promega Corp., Madison WI) was prepared following manufacturer instructions and diluted with DI H2O 1:1 (final solution is 50% CellTiterGlo® reagent in DI H2O). […] Immediately after addition of the CellTiter-Glo® reagent, the plates were read by the Envision Multilabel Reader (PerkinElmer).

[3] = tested on: DHODH deficient + Proguanil resistant Pf Dd2; assay: P. falciparum (Dd2 strain) asexual blood stage assay, DHODH deficient + proguanil resistant; type: cell-based; settings: Plasmodium falciparum, DD2, 72 h, read-out: DHODH deficient + Proguanil resistant Pf Dd2 IC50 (uM)
Description: as §1, §2, §3
(§5) The screening plate was prepared by centrifuging for parasite culture for 5 min at 800×g at RT (low brake) and removing supernatant. A parasite suspension was prepared with 0.3% parasitemia and 4% hematocrit in screening medium (SM). The suspension was gassed with a gas mixture of 1% oxygen, 3% carbon dioxide, 96% nitrogen and stored at 37° C. for until ready to use. […]
as §4

[4] = tested on: Pf Dd2; assay: P. falciparum (Dd2 strain) asexual blood stage assay, Pf Dd2; type: cell-based; settings: Plasmodium falciparum, DD2, 72 h, read-out: Pf Dd2 IC50 (uM)
Description: as §1, §2, §3, §5, §4

O=C(Nc1ccc(F)c(F)c1)c1c2c(nc3ccccc13)CCN(Cc1ccccc1)C2 [Compound 66, 2-Benzyl-N-(3,4-difluorophenyl)-1,2,3,4-tetrahydrobenzo[b][1,6]naphthyridine-10-carboxamide]
IC50 [1]: 0.0699 µM | cell-based toxicity, in words [2]: acceptable levels of cell-based toxicity | concentration below which no toxicity was seen [2]: ≥ 50 µM | IC50 [3]: 0.028 µM | IC50 [4]: 0.302 µM

O=C1c2c3c(nc4ccccc24)CCN(Cc2ccccc2)C3N1c1ccc(F)c(F)c1 (centres unmarked) [Compound 177, 3-Benzyl-2-(3,4-difluorophenyl)-2a,3,4,5-tetrahydrobenzo[b]pyrrolo[4,3,2-de][1,6]naphthyridin-1(2H)-one]
IC50 [1]: 0.0113 µM | potency against a proguanil resistant attB mutant strain ([1]; in words): undiminished potency | cell-based toxicity, in words [2]: acceptable levels of cell-based toxicity | concentration below which no toxicity was seen [2]: ≥ 12.5 µM | IC50 [3]: 0.0103 µM | IC50 [4]: 0.0063 µM
